Laboratory results: US20100056525A1, “5- AND 6- SUBSTITUTED BENZIMIDAZOLE THIOPHENE COMPOUNDS” (priority 2006, published 2010)

How the values were obtained:
[1] = target: T1, PLK1 kinase domain (Homo sapiens, UniProt P53350); assay: Assay for Inhibition of PLK1 (SPA, 33P-ATP); type: biochemical; conditions: 2 nM PLK1 kinase domain, 1 μM ATP, 22° C.; read-out: PLK1 pIC50 (converted)
T1 construct: made in house; host or cells: baculovirus infected T. ni cells
Procedure: A. Preparation of 6× N-Terminal His-Tagged PLK Kinase Domain
All procedures were performed at 4° C. Cells were lysed in 50 mM HEPES, 200 mM NaCl, 50 mM imidazole, 5% glycerol; pH 7.5. The homogenate was centrifuged at 14K rpm in a SLA-1500 rotor for 1 hr and the supernatant filtered through a 1.2 micron filter. The supernatant was loaded onto a Nickel chelating Sepharose (Amersham Pharmacia) column and washed with lysis buffer. Protein was eluted using 20%, 30% and 100% buffer B steps where buffer B was 50 mM HEPES, 200 mM NaCl, 300 mM imidazole, 5% glycerol; pH 7.5. Fractions containing PLK were determined by SDS-PAGE. Fractions containing PLK were diluted five-fold with 50 mM HEPES, 1 mM DTT, 5% glycerol; pH 7.5, then loaded on an SP Sepharose (Amersham Pharmacia) column. After washing the column with 50 mM HEPES, 1 mM DTT, 5% glycerol; pH 7.5, PLK was step eluted with 50 mM HEPES, 1 mM DTT, 500 mM NaCl; 5% glycerol; pH 7.5. PLK was concentrated using a 10 kDa molecular weight cutoff membrane and then loaded onto a Superdex 200 gel filtration (Amersham Pharmacia) column equilibrated in 25 mM HEPES, 1 mM DTT, 500 mM NaCl, 5% glycerol; pH 7.5. Fractions containing PLK were determined by SDS-PAGE. PLK was pooled, aliquoted and stored at −80° C. Samples were quality controlled using mass spectrometry, N-terminal sequencing and amino acid analysis.
B. Enzyme Activity +/− Inhibitors was Determined as Follows:
All measurements were obtained under conditions where signal production increased linearly with time and enzyme. Test compounds were added to white 384-well assay plates (0.1 μL for 10 μL and some 20 μL assays, 1 μL for some 20 μL assays) at variable known concentrations in 100% DMSO. DMSO (1-5% final, as appropriate) and EDTA (65 mM in reaction) were used as controls.
Reaction Mix (10 or 20 μL) was quickly added to each well immediately following addition of enzyme via automated liquid handlers and incubated 1-1.5 h at 22° C. The 20 μL enzymatic reactions were stopped with 50 μL of stop mix (50 mM EDTA, 4.0 mg/mL Streptavidin SPA beads in Standard Dulbecco's PBS (without Mg^2+ and Ca^2+), 50 μM ATP) per well. The 10 μL reactions were stopped with 10 μL of stop mix (50 mM EDTA, 3.0 mg/mL Streptavidin-coupled SPA Imaging Beads (“LeadSeeker”) in Standard Dulbecco's PBS (without Mg^2+ and Ca^2+), 50 μM ATP) per well. Plates were sealed with clear plastic seals, spun at 500×g for 1 min or settled overnight, and counted in Packard TopCount for 30 seconds/well (regular SPA) or imaged using a Viewlux imager (LeadSeeker SPA). Signal above background (EDTA controls) was converted to percent inhibition relative to that obtained in control (DMSO-only) wells.

[2] = test system: HCT-116 (human colon) cells; assay: Cell-Titer Glo Cell Growth Inhibition Assay; type: cell-based; conditions: HCT-116 cells, 72 h incubation, CellTiter-Glo, read-out: HCT116 IC50
Procedure: A549-L (human lung), Colo 205 (human colon), HCT-116 (human colon), HT29 (human colon), MX-1 (human breast), SKOV3 (human ovary) and P388 (murine leukemia) cell lines were cultured in RPM11640 containing 10% fetal bovine serum at 37° C. in a 5% CO2 incubator. Cell lines were split into T75 flasks (Falcon #353136) two to three days prior to assay set up at density which yields approximately 70-80% confluency at time of harvest for assay. Cells were harvested using 0.25% trypsin with EDTA (Glibco/Invitrogen #25200-056), Cell counts were performed on cell suspensions using Trypan Blue exclusion staining, cells were then plated in 105 µL of culture media per well at the following densities in 96 well Costar #3916 black flat bottom plates: A549-L 500 cells/well, Colo205 500 cells/well, HCT-116 500 cells/well, HT29 500 cells/well, MX-1 500 cells/well, SKOV3 500 cells/well and P388 250 cells/well. All plates were placed at 5% CO2 37° C. overnight and then test compounds were added the following day. One plate of each cell type was treated with CellTiter-Glo (Promega #G7573) for a day 0 proliferation measurement and read as described below. The test compounds were prepared in clear U bottom polypropylene 96 well plates (Falcon #35-1190 with consecutive two fold dilutions. 9 uL of these dilutions was added into each well of the cell plates. The final concentration of DMSO in all wells was 0.15%. Cells were incubated at 37° C., 5% CO2 for 72 h. Following 72 h of incubation with compounds each plate was developed and read. CellTiter-Glo reagent was added to assay plates using a volume equivalent to the cell culture volume in the wells. Plates were shaken for approximately 2 min and incubated at rt for approximately 15 min and the chemiluminescent signal was read on the Victor V or Envison 2100 reader. […] Concentration of compound that inhibited 50% of cell growth (IC50) was analyzed by 4 or 6 parameter fit of data using XLfit, value of no cell addition was substracted from all samples for background.

T1 sequence (P53350 21-346): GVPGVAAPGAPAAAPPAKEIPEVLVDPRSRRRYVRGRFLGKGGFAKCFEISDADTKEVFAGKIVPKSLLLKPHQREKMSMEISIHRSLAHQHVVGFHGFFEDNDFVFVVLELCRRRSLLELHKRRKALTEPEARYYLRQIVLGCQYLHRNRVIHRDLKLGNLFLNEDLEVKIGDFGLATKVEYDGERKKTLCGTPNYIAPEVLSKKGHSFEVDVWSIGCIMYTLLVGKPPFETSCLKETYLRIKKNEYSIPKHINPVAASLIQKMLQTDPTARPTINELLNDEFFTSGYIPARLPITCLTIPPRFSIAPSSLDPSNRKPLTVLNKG

- IC50 [1]: < 100 nM
- IC50 [2]: < 500 nM
Compound: C[C@@H](Oc1cc(-n2cnc3cc(-c4ccnc(N(C)CCN(C)C)c4)ccc32)sc1C(N)=O)c1ccccc1C(F)(F)F [Example 7, 5-(5-{2-[[2-(Dimethylamino)ethyl](methyl)amino]-4-pyridinyl}-1H-benzimidazol-1-yl)-3-({(1R)-1-[2-(trifluoromethyl)phenyl]ethyl}oxy)-2-thiophenecarboxamide]
